Key:
[1] = test system: barnyardgrass (Echinochloa crus-galli); experiment: Test A preemergence, barnyardgrass; format: in vivo; settings: Echinochloa crus-galli, pre-emergence, 240 h
Method in brief: (§1)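 Preemergence: seeded pots of loam plus sand received a directed soil spray. Postemergence: seedlings at one to two leaves, 2 to 10 cm high, were oversprayed. Each compound was formulated in a non-phytotoxic solvent mix that included a surfactant.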

kochia (Bassia scoparia) [2] = experiment: Test A preemergence, kochia; format: in vivo; settings: Bassia scoparia, pre-emergence, 240 h
Method in brief: as §1

[3] = test system: ragweed (common ragweed, Ambrosia artemisiifolia); experiment: Test A preemergence, ragweed; format: in vivo; settings: Ambrosia artemisiifolia, pre-emergence, 240 h
Method in brief: as §1

[4] = test system: Ryegrass, Italian (Italian ryegrass, Lolium multiflorum); experiment: Test A preemergence, Ryegrass, Italian; format: in vivo; settings: Lolium multiflorum, pre-emergence, 240 h
Method in brief: as §1

[5] = test system: Foxtail, Giant (giant foxtail, Setaria faberi); experiment: Test A preemergence, Foxtail, Giant; format: in vivo; settings: Setaria faberi, pre-emergence, 240 h
Method in brief: as §1

[6] = test system: barnyardgrass (Echinochloa crus-galli); experiment: Test A postemergence, barnyardgrass; format: in vivo; settings: Echinochloa crus-galli, post-emergence, 240 h, read-out: Plant response rating, Barnyardgrass
Method in brief: (§2)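 Preemergence: pigweed seeds in loam soil–sand blend received a directed soil spray of test chemicals in a non-phytotoxic solvent with surfactant. Postemergence: barnyardgrass, wheat and galium in pots of the same soil, 2 to 10 cm tall at one- to two-leaf stage, sprayed with the same formulation.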

kochia (Bassia scoparia) [7] = experiment: Test A postemergence, kochia; format: in vivo; settings: Bassia scoparia, post-emergence, 240 h, read-out: Plant response rating, Kochia
Method in brief: as §1

[8] = test system: ragweed (common ragweed, Ambrosia artemisiifolia); experiment: Test A postemergence, ragweed; format: in vivo; settings: Ambrosia artemisiifolia, post-emergence, 240 h, read-out: Plant response rating, Ragweed
Method in brief: as §1

[9] = test system: Ryegrass, Italian (Italian ryegrass, Lolium multiflorum); experiment: Test A postemergence, Ryegrass, Italian; format: in vivo; settings: Lolium multiflorum, post-emergence, 240 h, read-out: Plant response rating, Ryegrass, Italian
Method in brief: as §1

[10] = test system: Foxtail, Giant (giant foxtail, Setaria faberi); experiment: Test A postemergence, Foxtail, Giant; format: in vivo; settings: Setaria faberi, post-emergence, 240 h, read-out: Plant response rating, Foxtail, Giant
Method in brief: as §1

[11] = test system: pigweed (Amaranthus retroflexus); experiment: Test A postemergence, pigweed; format: in vivo; settings: Amaranthus retroflexus, post-emergence, 240 h, read-out: Plant response rating, Pigweed
Method in brief: as §1

[12] = test system: wheat (Triticum aestivum); experiment: Test A postemergence, wheat; format: in vivo; settings: Triticum aestivum, post-emergence, 240 h, read-out: Plant response rating, Wheat
Method in brief: as §2

corn (Zea mays) = experiment: Test A postemergence, corn; format: in vivo; settings: Zea mays, post-emergence, 240 h, read-out: Plant response rating, Corn
Method in brief: as §1

[13] = test system: blackgrass (Alopecurus myosuroides); experiment: Test A postemergence, blackgrass; format: in vivo; settings: Alopecurus myosuroides, post-emergence, 240 h, read-out: Plant response rating, Blackgrass
Method in brief: as §1

[14] = test system: galium (catchweed bedstraw, Galium aparine); experiment: Test A postemergence, galium; format: in vivo; settings: Galium, post-emergence, 240 h, read-out: Plant response rating, Galium
Method in brief: as §2

rice (Oryza sativa) = experiment: Test B flooded paddy test, rice; settings: 336 h, read-out: Plant response rating, Rice
[15] = test system: ducksalad (Heteranthera limosa); experiment: Test B flooded paddy test, ducksalad; settings: 336 h, read-out: Plant response rating, Ducksalad
[16] = test system: barnyardgrass (Echinochloa crus-galli); experiment: Test B flooded paddy test, barnyardgrass; settings: 336 h, read-out: Plant response rating, Barnyardgrass

Structure (SMILES): Cc1cc(C)c(N(S(=O)(=O)C(F)(F)F)S(=O)(=O)C(F)(F)F)cc1N1CCC2(CCCCC2)C1=O [Compound 267, N-[2,4-Dimethyl-5-(1-oxo-2-azaspiro[4.5]dec-2-yl)phenyl]-1,1,1-trifluoro-N-[(trifluoromethyl)sulfonyl]methanesulfonamide]
- pest or weed control at 500 g/ha ([1]; read-out: Barnyardgrass plant response rating): 100%
- pest or weed control at 125 g/ha ([1]; read-out: Plant response rating, Barnyardgrass): 100%
- pest or weed control at 500 g/ha (kochia (Bassia scoparia) [2]; read-out: Kochia plant response rating): 100%
- pest or weed control at 125 g/ha (kochia (Bassia scoparia) [2]; read-out: Plant response rating, Kochia): 80%
- pest or weed control at 125 g/ha ([3]; read-out: Plant response rating, Ragweed): 100%
- pest or weed control at 500 g/ha ([3]; read-out: Ragweed plant response rating): 100%
- pest or weed control at 125 g/ha ([4]; read-out: Plant response rating, Ryegrass, Italian): 90%
- pest or weed control at 500 g/ha ([4]; read-out: Ryegrass, Italian plant response rating): 100%
- pest or weed control at 500 g/ha ([5]; read-out: Foxtail, Giant plant response rating): 100%
- pest or weed control at 125 g/ha ([5]; read-out: Plant response rating, Foxtail, Giant): 100%
- pest or weed control at 125 g/ha [6]: 20%
- pest or weed control at 500 g/ha [6]: 20%
- pest or weed control at 125 g/ha (kochia (Bassia scoparia) [7]): 40%
- pest or weed control at 500 g/ha (kochia (Bassia scoparia) [7]): 60%
- pest or weed control at 125 g/ha [8]: 10%
- pest or weed control at 500 g/ha [8]: 40%
- pest or weed control at 125 g/ha [9]: 0%
- pest or weed control at 500 g/ha [9]: 30%
- pest or weed control at 125 g/ha [10]: 0%
- pest or weed control at 500 g/ha [10]: 0%
- pest or weed control at 125 g/ha [11]: 50%
- pest or weed control at 500 g/ha [11]: 80%
- plant injury at 125 g/ha [12]: 40%
- plant injury at 500 g/ha [12]: 60%
- plant injury at 125 g/ha (corn (Zea mays)): 0%
- plant injury at 500 g/ha (corn (Zea mays)): 0%
- pest or weed control at 125 g/ha [13]: 0%
- pest or weed control at 500 g/ha [13]: 20%
- pest or weed control at 125 g/ha [14]: 80%
- pest or weed control at 500 g/ha [14]: 90%
- plant injury at 250 g/ha (rice (Oryza sativa)): 0%
- pest or weed control at 250 g/ha [15]: 35%
- pest or weed control at 250 g/ha [16]: 0%

From patent US20230278972A1, “SUBSTITUTED HALOALKYL SULFONANILIDE HERBICIDES” (FMC Corporation, priority 2020, published 2023)
